Measurements as given in patent publication US8236820B2, “Anti-inflammatory compounds and uses thereof” (priority 2007, dated 2012).

Legend:
APC^Min/+ mice = experiment: APC Min/+ mice study of intestinal tumors; assay type: in vivo; conditions: 50 mg/kg/day gavage, 4 weeks
From the text: APC^Min/+ mice study: Min mice have a truncating mutation in the Apc gene that predisposes them to the development of gastrointestinal tumors in the small intestine and colon (Lipkin M, Yang K, Edelmann W, et al. Preclinical mouse models for cancer chemoprevention studies. Ann N Y Acad Sci 1999; 889:14-9.). In many important ways, this model system represents a useful (and extensively utilized) experimental system that recapitulates the relevant steps of colon carcinogenesis.
Eleven week-old male C57BL/6J APC^Min/+ mice divided into […] groups of 10 mice/group were treated for 4 weeks via gavage administration as follows: group 1 was treated with vehicle (corn oil); and group 2 was treated with phospho-sulindac I 50 mg/kg/day.

SW480 colon cancer cells = experiment: Nude mice xenograft study; assay type: in vivo; conditions: 50 mg/kg/day gavage, 14 days
Experimental: Nude mice xenograft study: Female nude mice CByJ.Cg-Foxn1 (5-6 weeks-old) were inoculated subcutaneously in their lower right flank with 1.5×10^6 SW480 colon cancer cells in a volume of 100 μl (containing 50% matrigel in PBS). Seven days later, animals were randomized into two groups (8 mice/group): group 1 received vehicle (1% (w/v) carboxy methylcellulose); group 2 received 50 mg/kg/day phospho-sulindac I. All drugs were administered in a solution of 1% (w/v) carboxy methylcellulose by gavage once daily (phospho-sulindac I and sulindac concentrations are equimolar). Tumors were measured twice a week with a digital microcaliper, and tumor volume (TV) was calculated using the formula: TV=[L×W×(L+W/2)×0.56], where L=length and W=width of tumor. After 14 days of treatment, animals were sacrificed, and tumors were removed and weighed.

MIA-PaCa-2 = experiment: Cell viability (MTT) assay, 24-h IC50, MIA-PaCa-2; assay type: cell-based, human; conditions: Homo sapiens, MIA PaCa-2, 24 h, read-out: 24-h IC50
[1] = assay type: in vivo; conditions: 5 days oral gavage
Experimental: Phospho-sulindac I lacked gastrointestinal toxicity in mice; gastrointestinal toxicity is the major side effect of sulindac as well as of the entire class of NSAIDs. We evaluated in mice the potential toxicity of phospho-sulindac I. Three groups, each consisting of 8 female C57BL/6J+/+mice 6 wks of age, were treated for 5 days by oral gavage with equimolar amounts of phospho-sulindac I (317 mg/kg/d) or conventional sulindac (200 mg/kg/day) or vehicle. Mice were weighed at time 0 and on days 3 and 5. Mice surviving to the end of the study were euthanized and necropsied.
The stomachs of sulindac-treated animals were larger than those of the other two groups and in some the liver appeared hyperemic.

[2] = test system: spermidine/spermine N^1-acetyltransferase (SSAT); experiment: SSAT enzymatic activity in HT-29 cells; assay type: cell-based, human; conditions: HT-29, 24 h; phospho-sulindac I 85 μM; P<0.05 versus control
Experimental: SW480 cells were incubated without or with phospho-sulindac I (P-S) for up to 24 h and SSAT activity was determined at each time point by determining the amount of labelled N1-acetylspermidine synthesized from [^14C]acetyl-CoA and unlabeled spermidine.
The effect of phospho-sulindac I on polyamines is mediated, at least in part, by activation of SSAT by phospho-sulindac I. It is known that conventional sulindac induces SSAT activity (Babbar et al., Cyclooxygenase-independent induction of apoptosis by sulindac sulfone is mediated by polyamines in colon cancer. J Biol Chem 2003; 278(48):47762-75.). Incubation of HT-29 and SW480 cells with 85 μM phospho-sulindac I for 24 h leads to a 3- and 4.4-fold increase of SSAT activity (P<0.05 versus control), respectively. On the other hand, incubation with sulindac led to a 1.5 and 2.5-fold increase of SSAT activity (P<0.05 versus control) in HT-29 and SW480 cells, respectively.

HT-29 cells = experiment: Cell cycle analysis, DFMO and phospho-sulindac I, 48 h; assay type: cell-based, human; conditions: DFMO 5 mM, phospho-sulindac I 40 μM
Experimental: A—Left panel: Cell viability was determined in HT-29 (full bars) and SW-480 (empty bars) cells after 48 h of incubation with 5 mM DFMO, 40 μM phospho-sulindac (P-S) or simultaneous combination of DFMO and P-S. Data are expressed as percentage of control cells (cells incubated only with DMSO). […] Right panel: In this isobologram the additivity line connects the IC50 value of each compound used alone. A and B represent two different dose pairs of each compound (their respective concentrations are shown in parentheses). The location of both A and B below the additivity line signifies synergy. […] DNA content was determined from propidium iodide (PI) fluorescence. C—Apoptosis and necrosis were determined by combined staining with annexin V and PI and determining fluorescence intensity. The percentages of apoptotic cells were determined using the dual staining with annexin V and propidium iodide and are indicated in each quadrant: left bottom quadrant, viable cells (annexin V-negative/PI-negative); right bottom quadrant, early apoptotic cells (annexin V-positive/PI-negative); right upper quadrant, late apoptotic cells (annexin V-positive/PI-positive); left upper quadrant, necrotic cells (annexin V-negative, PI-positive). […]

MDA-MB231 = experiment: Cell viability (MTT) assay, 24-h IC50, MDA-MB231; assay type: cell-based, human; conditions: Homo sapiens, MDA-MB-231, 24 h, read-out: 24-h IC50

CCOP(=O)(OCC)OCCCCOC(=O)CC1=C(C)/C(=C/c2ccc([S+](C)[O-])cc2)c2ccc(F)cc21 (centres unmarked) [Phospho-sulindac I]
signs of toxicity in Min mice (APC^Min/+ mice): without any overt signs of toxicity
decreased the number of tumors in the small intestine (APC^Min/+ mice; vs vehicle, p<0.002): 57.2%
reduction of tumors in the colon (APC^Min/+ mice; vs vehicle, p<0.02): 61.8%
number of colon tumors (APC^Min/+ mice; vehicle 1.6±0.8): 0.6±0.5
number of intestinal tumors (APC^Min/+ mice; vehicle 33.6±8.7): 19.4±12.0
tolerability in xenograft study (SW480 colon cancer cells): no weight loss or other signs of toxicity were observed
mean tumor weight (SW480 colon cancer cells; mean±SEM, vehicle 0.246±0.041): 0.097±0.018
reduction in tumor weight (SW480 colon cancer cells; vs vehicle, p<0.05): 60%
IC50 (MIA-PaCa-2): 88 µM
inspection of the heart, lungs, spleen, kidneys and liver ([1]; 317 mg/kg/d): no abnormalities
gastrointestinal or other toxicity (necropsy) ([1]; phospho-sulindac I 317 mg/kg/d, sulindac 200 mg/kg/day): no evidence of gastrointestinal or other toxicity
mortality ([1]; phospho-sulindac I 317 mg/kg/d, sulindac 200 mg/kg/day, 8 mice/group): 0%
body weight at end of study ([1]; phospho-sulindac I 317 mg/kg/d, sulindac 200 mg/kg/day, start 16.3±1.2, mean±SD): 15.7 ± 1.2 g
increase of SSAT activity [2]: 3 fold
G1 population arrest (HT-29 cells): 75%
S phase (HT-29 cells): 13.6%
IC50 (MDA-MB231): 17 µM
